# Assay results from ChEMBL document CHEMBL1201862, “PubChem BioAssay data set” (2004).
# Active and inactive are the calls of the source.
# Legend:
# [1] = blockers of CRF-binding protein–CRF-R2 complex – cell-based, uHTS hits, 384-well, dose response (AID 651639); format: functional, Homo sapiens; settings: read-out: IC50_Mean
# [2] = molecular target: T1, Corticotropin-releasing factor receptor 2/Corticotropin-releasing factor-binding protein (Homo sapiens, UniProt P24387+Q13324); test: activators of CRF receptor 2 with binding protein – uHTS hits, confirmation (AID 602473); format: functional; settings: read-out: EC50_Mean
# T1 sequence (Q13324 whole entry): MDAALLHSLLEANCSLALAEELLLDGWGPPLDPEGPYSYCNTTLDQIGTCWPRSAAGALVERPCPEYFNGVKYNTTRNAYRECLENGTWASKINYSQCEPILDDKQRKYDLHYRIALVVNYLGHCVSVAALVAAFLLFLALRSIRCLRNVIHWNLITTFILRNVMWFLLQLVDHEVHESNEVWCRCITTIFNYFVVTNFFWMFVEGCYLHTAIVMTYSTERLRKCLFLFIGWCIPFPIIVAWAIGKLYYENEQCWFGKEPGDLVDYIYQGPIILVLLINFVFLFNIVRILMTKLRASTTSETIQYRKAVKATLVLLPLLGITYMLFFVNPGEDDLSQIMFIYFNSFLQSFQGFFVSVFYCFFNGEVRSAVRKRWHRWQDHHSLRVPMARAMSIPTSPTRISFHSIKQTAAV
# T1 sequence (P24387 whole entry): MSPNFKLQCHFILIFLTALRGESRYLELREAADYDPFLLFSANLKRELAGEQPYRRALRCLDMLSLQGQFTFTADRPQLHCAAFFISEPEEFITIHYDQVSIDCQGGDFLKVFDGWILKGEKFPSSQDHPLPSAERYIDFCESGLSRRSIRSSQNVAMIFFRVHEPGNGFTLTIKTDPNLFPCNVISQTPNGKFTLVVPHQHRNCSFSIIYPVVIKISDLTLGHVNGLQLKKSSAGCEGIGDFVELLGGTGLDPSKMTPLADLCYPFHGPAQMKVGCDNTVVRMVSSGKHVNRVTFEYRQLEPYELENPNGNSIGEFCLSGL
# [3] = molecular target: T1, Corticotropin-releasing factor receptor 2/Corticotropin-releasing factor-binding protein; test: Dose Response confirmation of uHTS hits for small molecule antagonists of the CRF-binding protein and CRF-R2 receptor complex.; format: functional; settings: read-out: IC50_Mean
# [4] = viability of PTEN-deleted HCT116 cells – cell-based, HCT116 PTEN knockout, dose response (AID 1047); format: functional;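 note: HCT116 colon tumor cells with PTEN knocked out; cells exposed to compound for 60 hours before readout; potency for loss of cell viability measured by luminescence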
# [5] = NIH3T3 cell viability loss – ATP luminescence, mouse fibroblasts, counter-screen, dose response (AID 2010); format: functional, cell-based;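 note: cells exposed to compound for about 90 hours before reading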
# [6] = molecular target: T2, Heat shock factor protein 1 (Mus musculus, UniProt P38532); test: enhancement of HSF1-driven luciferase signal – cell-based, NIH3T3, luminescence, dose retest, confirmation (AID 435004); format: functional;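 note: stress induced by proteasome inhibitor MG132 added 30 min after compound; luciferase reporter driven by HSF1 response element in NIH3T3 cells; actives raise luminescence as potentiators of the MG132 stress response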
# T2 sequence (P38532 whole entry): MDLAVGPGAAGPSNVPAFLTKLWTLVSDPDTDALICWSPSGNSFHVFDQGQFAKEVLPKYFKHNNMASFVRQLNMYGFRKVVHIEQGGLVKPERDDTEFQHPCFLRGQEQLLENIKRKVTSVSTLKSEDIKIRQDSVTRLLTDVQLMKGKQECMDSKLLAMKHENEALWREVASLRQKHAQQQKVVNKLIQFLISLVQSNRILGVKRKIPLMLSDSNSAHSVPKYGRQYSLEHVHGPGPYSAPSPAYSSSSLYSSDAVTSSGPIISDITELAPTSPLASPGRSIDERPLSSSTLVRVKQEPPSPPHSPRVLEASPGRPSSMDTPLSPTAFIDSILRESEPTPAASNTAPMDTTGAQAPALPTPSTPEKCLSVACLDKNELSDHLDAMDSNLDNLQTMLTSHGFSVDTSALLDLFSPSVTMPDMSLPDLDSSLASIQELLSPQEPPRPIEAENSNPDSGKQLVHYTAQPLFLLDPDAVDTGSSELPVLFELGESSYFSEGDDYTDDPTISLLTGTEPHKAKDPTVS
# [7] = Vero E6 cell cytotoxicity, dose response, cytotoxicity control for non-replicating M. tuberculosis project, secondary assay (AID 492998); format: functional, VeroE6; settings: Vero C1008
# [8] = molecular target: T3, Microphthalmia-associated transcription factor (Homo sapiens, UniProt O75030); test: reducers of TRPM1 reporter luminescence, concentration series – cell-based, SK-MEL-5, cherry-picked, set 3, MITF inhibitor project, dose response (AID 493073); format: functional;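 note: SK-MEL-5 melanoma cells with luciferase driven by the MITF target TRPM1 promoter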
# T3 sequence (O75030 whole entry): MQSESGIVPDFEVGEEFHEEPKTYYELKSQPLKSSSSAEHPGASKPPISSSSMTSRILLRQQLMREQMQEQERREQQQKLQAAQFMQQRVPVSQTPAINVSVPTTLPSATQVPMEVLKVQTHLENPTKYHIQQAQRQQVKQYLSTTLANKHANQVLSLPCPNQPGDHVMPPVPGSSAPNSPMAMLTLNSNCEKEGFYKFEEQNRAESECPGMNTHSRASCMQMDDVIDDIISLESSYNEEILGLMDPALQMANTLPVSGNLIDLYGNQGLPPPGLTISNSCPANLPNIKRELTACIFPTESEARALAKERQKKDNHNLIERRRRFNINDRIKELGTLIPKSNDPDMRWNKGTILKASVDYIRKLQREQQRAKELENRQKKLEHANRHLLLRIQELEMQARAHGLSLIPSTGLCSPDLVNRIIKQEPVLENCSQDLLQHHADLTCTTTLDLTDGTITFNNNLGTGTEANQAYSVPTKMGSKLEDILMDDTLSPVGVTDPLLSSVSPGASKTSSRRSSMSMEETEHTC
# [9] = HepG2 cell cytotoxicity, dose response, cytotoxicity control for non-replicating M. tuberculosis project (AID 489018); format: functional; settings: Mycobacterium tuberculosis
# [10] = Trypanosoma cruzi growth suppression in host cells – NIH3T3 host cells, beta-gal luminescence, confirmation (AID 2044); format: functional, cell-based;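 note: intracellular parasites grown in NIH/3T3 mouse fibroblasts as host cells; luminescent beta-galactosidase reporter signal from transgenic T. cruzi replicating inside host cells; inhibitors lower the luminescence signal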
# [11] = THP-1 cell cytotoxicity, dose response, cytotoxicity control for non-replicating M. tuberculosis project (AID 489025); format: functional
# [12] = viability of HCT116 lacking mutant beta-catenin – cell-based, human colon tumor, dose response (AID 1045); format: functional;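 note: HCT116 colon tumor cells with beta catenin knocked out; cells exposed to compound for 60 hours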
# cells = format: functional
# Genome polyprotein = Genome polyprotein (dengue virus type 2, UniProt P29990); test: flavivirus cap methylation enzyme inhibition – biochemical, confirmation dose response, primary screen (AID 588689); format: functional
# Genome polyprotein, sequence (P29990 2492-3391 limits assumed): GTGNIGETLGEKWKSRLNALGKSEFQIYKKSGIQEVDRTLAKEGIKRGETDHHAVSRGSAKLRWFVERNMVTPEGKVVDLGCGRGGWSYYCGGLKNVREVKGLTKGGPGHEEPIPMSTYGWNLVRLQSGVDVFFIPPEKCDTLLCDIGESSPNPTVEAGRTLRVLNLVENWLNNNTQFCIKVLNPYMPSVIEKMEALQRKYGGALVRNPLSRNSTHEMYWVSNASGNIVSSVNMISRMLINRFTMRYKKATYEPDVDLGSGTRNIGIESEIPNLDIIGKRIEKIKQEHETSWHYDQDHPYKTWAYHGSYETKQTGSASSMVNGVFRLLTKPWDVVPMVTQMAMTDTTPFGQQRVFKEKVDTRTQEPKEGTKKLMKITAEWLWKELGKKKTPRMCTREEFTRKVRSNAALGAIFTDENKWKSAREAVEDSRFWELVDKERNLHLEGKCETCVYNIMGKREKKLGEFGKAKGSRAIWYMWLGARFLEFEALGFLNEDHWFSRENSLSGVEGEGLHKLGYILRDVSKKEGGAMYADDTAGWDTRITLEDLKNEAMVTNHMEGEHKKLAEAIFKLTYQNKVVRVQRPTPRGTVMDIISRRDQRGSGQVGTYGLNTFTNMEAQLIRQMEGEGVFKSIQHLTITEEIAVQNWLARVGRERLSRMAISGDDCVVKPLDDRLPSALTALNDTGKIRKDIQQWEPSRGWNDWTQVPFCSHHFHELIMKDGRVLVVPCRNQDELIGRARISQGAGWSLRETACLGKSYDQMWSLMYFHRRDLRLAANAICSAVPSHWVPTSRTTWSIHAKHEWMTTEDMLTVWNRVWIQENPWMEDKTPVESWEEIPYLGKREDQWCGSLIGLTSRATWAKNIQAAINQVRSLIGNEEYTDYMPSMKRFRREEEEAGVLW
# [13] = molecular target: Ras and Rab interactor 1/Tyrosine-protein kinase ABL1 (Homo sapiens, UniProt P00519+Q13671); format: functional;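 note: biochemical TR-FRET dose-response test measuring inhibition of binding between Rin1 and Abl proteins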
# Ras and Rab interactor 1/Tyrosine-protein kinase ABL1, sequence (P00519 whole entry): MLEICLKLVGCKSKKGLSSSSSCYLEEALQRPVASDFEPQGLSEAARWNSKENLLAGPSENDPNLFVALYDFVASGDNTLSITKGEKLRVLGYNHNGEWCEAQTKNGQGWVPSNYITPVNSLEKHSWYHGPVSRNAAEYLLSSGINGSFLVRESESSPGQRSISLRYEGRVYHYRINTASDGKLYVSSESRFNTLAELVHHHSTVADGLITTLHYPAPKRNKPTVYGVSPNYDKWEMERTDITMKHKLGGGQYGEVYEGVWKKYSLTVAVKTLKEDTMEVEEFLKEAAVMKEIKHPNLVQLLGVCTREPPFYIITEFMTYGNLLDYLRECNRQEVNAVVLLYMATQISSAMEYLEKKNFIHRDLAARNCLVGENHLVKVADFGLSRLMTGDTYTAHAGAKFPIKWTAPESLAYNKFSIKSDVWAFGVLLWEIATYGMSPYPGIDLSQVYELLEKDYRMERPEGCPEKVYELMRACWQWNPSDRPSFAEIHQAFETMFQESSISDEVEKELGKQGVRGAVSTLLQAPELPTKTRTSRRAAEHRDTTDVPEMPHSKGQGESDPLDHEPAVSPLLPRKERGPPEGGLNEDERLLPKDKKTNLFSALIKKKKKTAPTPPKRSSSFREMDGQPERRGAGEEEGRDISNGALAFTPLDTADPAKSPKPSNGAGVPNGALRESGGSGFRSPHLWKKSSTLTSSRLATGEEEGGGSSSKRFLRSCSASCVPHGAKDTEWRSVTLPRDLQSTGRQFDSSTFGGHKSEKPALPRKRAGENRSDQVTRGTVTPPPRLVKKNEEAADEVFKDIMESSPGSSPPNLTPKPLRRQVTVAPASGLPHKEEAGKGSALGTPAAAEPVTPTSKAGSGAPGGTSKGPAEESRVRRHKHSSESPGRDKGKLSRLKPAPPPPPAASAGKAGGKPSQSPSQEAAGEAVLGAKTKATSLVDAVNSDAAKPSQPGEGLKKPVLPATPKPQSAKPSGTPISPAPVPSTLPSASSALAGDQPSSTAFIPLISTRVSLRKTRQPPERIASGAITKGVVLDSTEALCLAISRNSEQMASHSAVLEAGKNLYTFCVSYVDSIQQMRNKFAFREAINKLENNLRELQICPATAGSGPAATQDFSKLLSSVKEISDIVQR
# Ras and Rab interactor 1/Tyrosine-protein kinase ABL1, sequence (Q13671 whole entry): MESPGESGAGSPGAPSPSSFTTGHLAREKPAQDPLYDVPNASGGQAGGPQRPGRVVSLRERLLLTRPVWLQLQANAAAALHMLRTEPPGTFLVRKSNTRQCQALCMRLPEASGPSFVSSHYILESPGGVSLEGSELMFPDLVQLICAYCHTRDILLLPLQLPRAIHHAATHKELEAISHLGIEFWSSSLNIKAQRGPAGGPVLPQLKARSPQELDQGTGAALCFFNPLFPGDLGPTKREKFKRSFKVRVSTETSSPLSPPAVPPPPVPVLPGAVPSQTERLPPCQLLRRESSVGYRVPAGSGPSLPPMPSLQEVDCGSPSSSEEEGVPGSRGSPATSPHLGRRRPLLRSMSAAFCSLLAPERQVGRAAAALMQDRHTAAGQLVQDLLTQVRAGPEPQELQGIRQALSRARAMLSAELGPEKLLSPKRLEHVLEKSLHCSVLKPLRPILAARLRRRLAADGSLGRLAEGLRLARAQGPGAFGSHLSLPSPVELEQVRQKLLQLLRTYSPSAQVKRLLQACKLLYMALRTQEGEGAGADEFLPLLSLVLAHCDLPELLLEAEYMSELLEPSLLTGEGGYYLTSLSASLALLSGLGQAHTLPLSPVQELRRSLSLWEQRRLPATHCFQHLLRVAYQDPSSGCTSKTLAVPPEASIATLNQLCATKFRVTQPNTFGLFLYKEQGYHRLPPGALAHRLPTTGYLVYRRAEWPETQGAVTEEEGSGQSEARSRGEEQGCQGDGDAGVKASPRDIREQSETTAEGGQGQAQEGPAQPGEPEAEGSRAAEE
# [14] = molecular target: T4, Sentrin-specific protease 8 (Homo sapiens, UniProt Q96LD8); format: functional
# T4 sequence (Q96LD8 whole entry): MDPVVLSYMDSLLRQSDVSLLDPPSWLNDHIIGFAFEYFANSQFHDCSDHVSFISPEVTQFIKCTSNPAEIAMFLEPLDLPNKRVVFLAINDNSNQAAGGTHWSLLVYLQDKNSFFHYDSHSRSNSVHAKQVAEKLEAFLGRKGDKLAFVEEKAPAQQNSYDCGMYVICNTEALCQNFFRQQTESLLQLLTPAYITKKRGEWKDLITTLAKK
# [15] = molecular target: T4, Sentrin-specific protease 8; format: functional; remark: listed apart in the source
structure (smiles),measurement,setting,value
COc1ccc(Oc2ccc(C(F)(F)F)cc2NC(=O)c2ccc(OC)cc2)cc1,IC50,[1],7.95 µM (active)
same,EC50,[2],> 53 µM (inactive)
same,IC50,[3],< 0.368 µM (active)
O=[N+]([O-])c1ccc(-n2nnnc2-c2ccccc2)c([N+](=O)[O-])c1,EC50,[4],4.92 µM (active)
same,EC50,[5],> 60 µM (not active)
same,EC50,[6],9.09 µM (active)
same,CC50,[7],8.41 µM (active)
same,AC50,[8],7.37 µM (active)
same,CC50,[9],19.2 µM (active)
same,EC50,[10],1.75 µM (active)
same,CC50,[11],19.6 µM (active)
same,EC50,[12],5.3 µM (active)
same,IC50,cells,5.22 µM (active)
O=c1c(Sc2ccccc2)c(C(F)(F)F)[nH]n1-c1ccccc1,IC50,Genome polyprotein,59.5 µM (active)
same,IC50,[1],> 20 µM (inactive)
same,EC50,[2],> 53 µM (inactive)
same,IC50,[3],22.3 µM (active)
CC(C)c1ccc(NC(=O)CSc2nnc(CN3CCOCC3)n2C)cc1,IC50,[13],14.2 µM (inactive)
C=CCNc1ncnc2c1ncn2[C@H]1CN(Cc2ccc(-c3ccccc3)cc2)C[C@@H](CO)O1,IC50,[13],24.2 µM (inactive)
CC(C)N1C(=O)CCC1C(=O)N1CCCc2ccccc21 (stereo unspecified),IC50,[14],9.12 µM (active)
same,IC50,[15],> 100 µM (inactive)
